The values that follow come from the OligoGym collection.

Data set [1] addresses CTNNB1. In words: HEK293-TLR7, 100 nM ASO, then resiquimod.
Data set [2] deals with CTNNB1. In words: HEK293-TLR8, 100 nM ASO, then resiquimod.

HELM strings list units from the 5' end as sugar, base in round brackets, then linkage (d deoxyribose, r ribose, m 2'-O-methyl, p phosphodiester). [sp] = phosphorothioate linkage

The substance “RNA1{m(A)[sp].m(C)[sp].m(C)[sp].m(C)[sp].m(A)[sp].d(C)[sp].d(T)[sp].d(T)[sp].d(G)[sp].d(G)[sp].d(C)[sp].d(A)[sp].d(G)[sp].d(A)[sp].d(C)[sp].m(C)[sp].m(A)[sp].m(U)[sp].m(C)[sp].m(A)}$$$$” yielded a TLR7 signal (NF-kB luciferase) (% of resiquimod alone) with CTNNB1 [1] of 65.8. For the same substance, the TLR8 potentiation (NF-kB luciferase) (fold of resiquimod alone) in the data set with CTNNB1 [2] worked out at 2.74.
For “RNA1{m(G)[sp].m(G)[sp].m(C)[sp].m(C)[sp].m(A)[sp].d(T)[sp].d(C)[sp].d(T)[sp].d(C)[sp].d(T)[sp].d(G)[sp].d(C)[sp].d(T)[sp].d(T)[sp].d(C)[sp].m(U)[sp].m(U)[sp].m(G)[sp].m(G)[sp].m(U)}$$$$” the same measures were 35.9 and 0.82.
The like results for “RNA1{m(G)[sp].m(C)[sp].m(C)[sp].m(C)[sp].m(A)[sp].d(T)[sp].d(C)[sp].d(C)[sp].d(A)[sp].d(T)[sp].d(G)[sp].d(A)[sp].d(G)[sp].d(G)[sp].d(T)[sp].m(C)[sp].m(C)[sp].m(U)[sp].m(G)[sp].m(G)}$$$$” were, in that order, 31.7 and 1.46.
